Laboratory results taken from ChEMBL document CHEMBL4393655, “Evaluation of synthetic substituted 1,2-dioxanes as novel agents against human leishmaniasis” (Eur J Med Chem, 2019).

Key:
Leishmania infantum [1] = assay: Antileishmanial activity against promastigote stage of Leishmania infantum MHOM/PT/88/IMT151 as parasite growth inhibition after 48 hrs by MTT assay; type: functional, organism-based; settings: MHOM/PT/88/IMT151, 48 h
Leishmania infantum [2] = assay: Antileishmanial activity against amastigote stage of Leishmania infantum MHOM/PT/88/IMT151 infected in human THP-1 cells assessed as parasite growth inhibition after 48 hrs by microscopic analysis; type: functional, organism-based; settings: MHOM/PT/88/IMT151, THP-1, 48 h
Leishmania donovani [3] = assay: Antileishmanial activity against late log/stationary phase of promastigote stage of Leishmania donovani MHOM/NP/02/BPK282/0c14 assessed as parasite growth inhibition after 72 hrs by plate reader based Alamar blue assay; type: functional, organism-based
Leishmania donovani [4] = assay: Antileishmanial activity against promastigote stage of Leishmania donovani MHOM/ET/67/HU3 assessed as parasite growth inhibition after 3 days by MTT assay; type: functional, organism-based; settings: MHOM/ET/67/HU3, 72 h
[5] = Solubility of the compound; type: physicochemical
[6] = (§1) Cytotoxicity against African green monkey Vero cells after 72 hrs by plate reader based Alamar blue assay; type: cell-based; settings: chlorocebus sabaeus, Vero cells
[7] = Selectivity index, ratio of CC50 for African green monkey Vero cells to IC50 for Leishmania donovani MHOM/NP/02/BPK282/0c14; type: toxicity; settings: for selectivity ratio: Vero cells, read-out: Ratio CC50/IC50
Leishmania infantum [8] = assay: Antileishmanial activity against late log/stationary phase of promastigote stage of Leishmania infantum MHOM/TN/80/IPT1 assessed as parasite growth inhibition after 72 hrs by plate reader based Alamar blue assay; type: functional, organism-based; settings: MHOM/TN/80/IPT1, 72 h
Leishmania major = assay: Antileishmanial activity against late log/stationary phase of promastigote stage of Leishmania major MHOM/SU/73/5-ASKH assessed as parasite growth inhibition after 72 hrs by plate reader based Alamar blue assay; type: functional, organism-based
Leishmania tropica = assay: Antileishmanial activity against late log/stationary phase of promastigote stage of Leishmania tropica MHOM/SU/74/K27 assessed as parasite growth inhibition after 72 hrs by plate reader based Alamar blue assay; type: functional, organism-based; settings: MHOM/SU/74/K27, 72 h
Leishmania donovani [9] = assay: Antileishmanial activity against amastigote stage of Leishmania donovani MHOM/NP/02/BPK282/0c14 infected in human THP1 cells assessed as parasite growth inhibition after 72 hrs by Giemsa staining-based light microscopic analysis; type: functional, organism-based; settings: MHOM/NP/02/BPK282/0c14, THP-1, 72 h
Vero = assay: as §1; type: cell-based; settings: chlorocebus sabaeus, vero, 72 h
Leishmania donovani [10] = assay: Antileishmanial activity against promastigote stage of Leishmania donovani MHOM/IN/83/AG83 assessed as inhibition of parasite viability after 48 hrs by MTS assay; type: functional, organism-based; settings: MHOM/IN/83/AG83, 48 h
Leishmania donovani [11] = assay: Antileishmanial activity against promastigote stage of Leishmania donovani assessed as parasite growth inhibition after 72 hrs by resazurin dye based assay; type: functional, organism-based
Leishmania donovani [12] = assay: Antileishmanial activity against promastigote stage of Leishmania donovani NLB-065 assessed as parasite growth inhibition after 72 hrs by microscopic analysis; type: functional, organism-based; settings: NLB-065, 72 h
[13] = Leishmania donovani, MHOM/NP/02/BPK282/0c14, 72 h

SMILES | IC50 (Leishmania donovani [3]; [13]) [µM] | CC50 at 72 h [6] [µM] | selectivity ratio [7] | also measured
O=C1CCC2(CC1)OOC1(O2)C2CC3CC(C2)CC1C3 (centres undefined) |  |  |  | IC50 (Leishmania infantum [1]): 9.35 µM; IC50 (Leishmania infantum [2]): 79.8 µM
COC(=O)C1CC(c2ccccc2)(c2ccccc2)OOC1(C)OC (centres undefined) | > 40 |  |  | 
C=CCO[C@@]1(C(F)(F)F)O[C@@H]2O[C@@]3(C)C[C@H]4[C@H](C)CC[C@@H](C1=C)[C@@]24OO3 |  |  |  | IC50 (Leishmania donovani [4]): 5.5 to 12.4 µM
C=CCO[C@@]1(C(F)(F)F)O[C@@H]2O[C@@]3(C)C[C@H]4[C@H](C)CC[C@@H]([C@H]1C)[C@@]24OO3 |  |  |  | IC50 (Leishmania donovani [4]): 1.6 to 6.25 µM
CCCCC1(O)OOC(c2ccccc2)(c2ccccc2)CC1C(=O)OC (centres undefined) |  |  |  | solubility [5]: Insoluble
C[C@@H]1CC[C@H]2[C@@H](C)[C@](OO)(C(F)(F)F)O[C@@H]3O[C@@]4(C)C[C@@H]1[C@]32OO4 |  |  |  | IC50 (Leishmania donovani [4]): 2.5 to 12.5 µM
COC1(C)OOC(c2ccccc2)(c2ccccc2)CC1CO (centres undefined) | > 40 |  |  | 
COc1ccc(N[C@@]2(C(F)(F)F)O[C@@H]3O[C@@]4(C)C[C@H]5[C@H](C)CC[C@@H]([C@H]2C)[C@@]35OO4)cc1 |  |  |  | IC50 (Leishmania donovani [4]): 0.38 to 1.5 µM
COC(=O)C1CC(c2ccccc2)(c2ccccc2)OOC1(C)O (centres undefined) | > 40 |  |  | 
NCC1CC[C@]2(CC1)OO[C@]1(O2)C2CC3CC(C2)CC1C3 (some centres undefined) |  |  |  | IC50 (Leishmania infantum [1]): 3.51 µM; IC50 (Leishmania infantum [2]): 108 µM
CCCCC1(CCCC)C[C@@H](COCc2cn(CC(O)(Cn3cncn3)c3ccc(F)cc3F)nn2)[C@@](C)(OC)OO1 (mixture of isomers) | 16 | 195 | 12.2 | IC50 (Leishmania infantum [8]): 12 µM; IC50 (Leishmania major): 38.4 µM; IC50 (Leishmania tropica): 38 µM; IC50 (Leishmania donovani [9]): 13 µM
CO[C@@]1(C)OOC2(CC[C@H]3C[C@@H]2C3(C)C)C[C@H]1CNCCCn1ccnc1 (mixture of isomers) | 16.3 | 274 | 16.8 | IC50 (Leishmania infantum [8]): 6 µM; IC50 (Leishmania major): 15.5 µM; IC50 (Leishmania tropica): 35 µM; IC50 (Leishmania donovani [9]): 23.5 µM
CO[C@]1(C)OOC2(CC[C@H]3C[C@@H]2C3(C)C)C[C@H]1CNCCCn1ccnc1 (mixture of isomers; form 1) |  | 300 | 18.3 | IC50 (Leishmania donovani [3]): 16.4 µM
CO[C@]1(C)OOC2(CC[C@H]3C[C@@H]2C3(C)C)C[C@H]1CNCCCn1ccnc1 (mixture of isomers; form 2) |  |  |  | IC50 (Leishmania donovani [3]): 8 µM; CC50 (Vero): 276 µM; Ratio CC50/IC50 ([7]; vero): 34.6; IC50 (Leishmania infantum [8]): 5 µM; IC50 (Leishmania major): 25 µM; IC50 (Leishmania tropica): 24 µM; IC50 (Leishmania donovani [9]): 9.7 µM
CO[C@@]1(C)OOC(C)(C)C[C@H]1COCc1cn(CCC[P+](c2ccccc2)(c2ccccc2)c2ccccc2)nn1 (racemic) | > 40 |  |  | 
CCCCC1(CCCC)C[C@@H](C(=O)OC)[C@@](C)(O)OO1 (racemic) | > 40 |  |  | 
CCCCC1(CCCC)C[C@@H](CO)[C@](C)(OC)OO1 (racemic) | > 40 |  |  | 
CCCC[C@]1(OC)OOC(C)(C)C[C@H]1CNCCCn1ccnc1 (racemic) | > 40 |  |  | 
CCCCC1(CCCC)C[C@@H](CNCCCn2cncn2)[C@@](C)(OC)OO1 (racemic) | > 40 |  |  | 
CO[C@@]1(C)OOC(C)(C)C[C@H]1CNCCCn1ccnc1 (racemic) | > 40 |  |  | 
CO[C@@]1(C)OOC(c2ccccc2)(c2ccccc2)C[C@H]1CNCCCn1ccnc1 (racemic) | 7.5 | 50 | 6.7 | 

SMILES | IC50 (Leishmania donovani [3]; [13]) [µM] | CC50 at 72 h [6] [µM] | selectivity ratio [7] | also measured
CCCCC1(CCCC)C[C@@H](CO)[C@@](C)(OC)OO1 (racemic) | > 40 |  |  | 
CCCCC1(CCCC)C[C@@H](C(=O)OC)[C@](C)(OC)OO1 (racemic) | > 40 |  |  | 
CCCCC1(CCCC)C[C@@H](CNCCCn2ccnc2)[C@@](CCCC)(OC)OO1 (racemic) | 6.2 | 32.5 | 5.2 | 
CO[C@@]1(C)OOC(c2ccccc2)(c2ccccc2)C[C@H]1COCc1cn(CCC[P+](c2ccccc2)(c2ccccc2)c2ccccc2)nn1 (racemic) | 13.8 | 280 | 24.3 | IC50 (Leishmania infantum [8]): 10 µM; IC50 (Leishmania major): 2.6 µM; IC50 (Leishmania tropica): 6 µM; IC50 (Leishmania donovani [9]): 16.5 µM
CCCCC1(CCCC)C[C@@H](CNCCCNc2ccnc3cc(Cl)ccc23)[C@@](C)(OC)OO1 (racemic) | 1.6 | 4 | 2.5 | 
CCCC[C@]1(OC)OOC(c2ccccc2)(c2ccccc2)C[C@H]1CNCCCn1ccnc1 (racemic) | 4.2 | 9.5 | 2.3 | 
CO[C@@]1(C)OOC(c2ccc(F)cc2)(c2ccc(F)cc2)C[C@H]1CNCCCn1ccnc1 (racemic) | 12 | 93.6 | 7.8 | 
CCCCC1(CCCC)C[C@@H](C(=O)OC)[C@@](C)(OC)OO1 (racemic) | > 40 |  |  | 
CCCCC1(CCCC)C[C@@H](CNCCCn2ccnc2)[C@@](C)(OC)OO1 (racemic) | 7.5 | 74.5 | 13.5 | IC50 (Leishmania infantum [8]): 3 µM; IC50 (Leishmania major): 11.8 µM; IC50 (Leishmania tropica): 8.9 µM; IC50 (Leishmania donovani [9]): 12.2 µM
CCCCC1(CCCC)C[C@@H](CNCCCn2ccnc2)[C@](C)(OC)OO1 (racemic) | 5.2 | 140 | 35 | IC50 (Leishmania infantum [8]): 2.5 µM; IC50 (Leishmania major): 3.2 µM; IC50 (Leishmania tropica): 3 µM; IC50 (Leishmania donovani [9]): 10.1 µM
CCCCC1(CCCC)C[C@@H](COCc2cn(CCC[P+](c3ccccc3)(c3ccccc3)c3ccccc3)nn2)[C@](C)(OC)OO1 (racemic) | 40 | 200 | 5 | 
CCCCC1(CCCC)C[C@@H](COCc2cn(CCC[P+](c3ccccc3)(c3ccccc3)c3ccccc3)nn2)[C@@](C)(OC)OO1 (racemic) | 15.5 | 102 | 6.6 | 
C[C@@H]1[C@H](O)[C@@H](C)/C=C/C=C/C=C/C=C/C=C/C=C/C=C/[C@H](O[C@@H]2O[C@H](C)[C@@H](O)[C@H](N)[C@@H]2O)C[C@@H]2O[C@](O)(C[C@@H](O)C[C@@H](O)[C@H](O)CC[C@@H](O)C[C@@H](O)CC(=O)O[C@H]1C)C[C@H](O)[C@H]2C(=O)O [AMPHOTERICIN B] | 0.3 |  | 667 | IC50 (Leishmania donovani [4]): 0.03 to 2.8 µM
C[C@@H]1CC[C@H]2[C@@H](C)C(=O)O[C@@H]3O[C@@]4(C)CC[C@@H]1[C@]32OO4 [ARTEMISININ] | > 40 |  |  | IC50 (Leishmania donovani [10]): 100 to 160 µM
C[C@H]1[C@@H](O)O[C@@H]2O[C@@]3(C)CC[C@H]4[C@H](C)CC[C@@H]1[C@@]24OO3 [ARTENIMOL] |  |  |  | IC50 (Leishmania donovani [4]): 4.1 to 20.2 µM
OC(Cn1cncn1)(Cn1cncn1)c1ccc(F)cc1F [FLUCONAZOLE] | > 40 |  |  | 
CCCCCCCCCCCCCCCCOP(=O)([O-])OCC[N+](C)(C)C [MILTEFOSINE] |  |  |  | IC50 (Leishmania donovani [4]): 1.9 to 68.1 µM
NC[C@@H]1O[C@H](O[C@H]2[C@@H](O)[C@H](O[C@@H]3[C@@H](O)[C@H](N)C[C@H](N)[C@H]3O[C@H]3O[C@H](CO)[C@@H](O)[C@H](O)[C@H]3N)O[C@@H]2CO)[C@H](N)[C@@H](O)[C@@H]1O [PAROMOMYCIN] |  |  |  | IC50 (Leishmania donovani [11]): 19.7 to 28.1 µM
CCN(CC)CCCCCCNc1cc(OC)cc2c(C)ccnc12 [SITAMAQUINE] |  |  |  | IC50 (Leishmania donovani [4]): 36.1 to 179 µM
C[C@H]1[C@H](OC(=O)CCC(=O)O)O[C@@H]2O[C@@]3(C)CC[C@H]4[C@H](C)CC[C@@H]1[C@@]24OO3 [SODIUM ARESUNATE] | > 40 |  |  | IC50 (Leishmania donovani [12]): 12.1 µM
